# Data from the supplement of paper PMC11451515.
# Tested on: NOMO1
# Assay: cell viability relative to DMSO control; higher = less cytotoxic
# Details: 48 h
# Summary of the method: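 Viability was expressed as a per-plate percentage of DMSO wells, with cell-free wells as background. Leukemia cells (NOMO1 or SEM at 500 cells/well, P12-Ichikawa at 1000 cells/well) were adapted for at least four passages in each medium and seeded in 1536-well plates (5 μl). Library compounds in DMSO were pin-dosed over an 11-point threefold series from 47 μM to 0.79 nM, and CellTiter-Glo One luminescence was read after 48 h at 37°C.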
# [1] = HPLM + 10% dialyzed FBS, 0.000781 µM
# [2] = HPLM + 10% dialyzed FBS, 0.00234 µM
# [3] = HPLM + 10% dialyzed FBS, 0.00702 µM
# [4] = HPLM + 10% dialyzed FBS, 0.0211 µM
# [5] = HPLM + 10% dialyzed FBS, 0.0632 µM
# [6] = HPLM + 10% dialyzed FBS, 0.19 µM
# [7] = HPLM + 10% dialyzed FBS, 0.569 µM
# [8] = HPLM + 10% dialyzed FBS, 1.71 µM
# [9] = HPLM + 10% dialyzed FBS, 5.12 µM
# [10] = HPLM + 10% dialyzed FBS, 15.4 µM
# [11] = HPLM + 10% dialyzed FBS, 46.1 µM
# [12] = RPMI 5 mM glucose + 10% FBS, 0.000781 µM
# [13] = RPMI 5 mM glucose + 10% FBS, 0.00234 µM
# [14] = RPMI 5 mM glucose + 10% FBS, 0.00702 µM
# [15] = RPMI 5 mM glucose + 10% FBS, 0.0211 µM
# [16] = RPMI 5 mM glucose + 10% FBS, 0.0632 µM
# [17] = RPMI 5 mM glucose + 10% FBS, 0.19 µM
# [18] = RPMI 5 mM glucose + 10% FBS, 0.569 µM
# [19] = RPMI 5 mM glucose + 10% FBS, 1.71 µM
# [20] = RPMI 5 mM glucose + 10% FBS, 5.12 µM
# [21] = RPMI 5 mM glucose + 10% FBS, 15.4 µM
# [22] = RPMI 5 mM glucose + 10% FBS, 46.1 µM
# [23] = RPMI 5 mM glucose + 10% dialyzed FBS, 0.000781 µM
# [24] = RPMI 5 mM glucose + 10% dialyzed FBS, 0.00234 µM
# [25] = RPMI 5 mM glucose + 10% dialyzed FBS, 0.00702 µM
# [26] = RPMI 5 mM glucose + 10% dialyzed FBS, 0.0211 µM
# [27] = RPMI 5 mM glucose + 10% dialyzed FBS, 0.0632 µM
# [28] = RPMI 5 mM glucose + 10% dialyzed FBS, 0.19 µM
# [29] = RPMI 5 mM glucose + 10% dialyzed FBS, 0.569 µM
# [30] = RPMI 5 mM glucose + 10% dialyzed FBS, 1.71 µM
# [31] = RPMI 5 mM glucose + 10% dialyzed FBS, 5.12 µM
# [32] = RPMI 5 mM glucose + 10% dialyzed FBS, 15.4 µM
# [33] = RPMI 5 mM glucose + 10% dialyzed FBS, 46.1 µM
SMILES,cell viability [1] [%],cell viability [2] [%],cell viability [3] [%],cell viability [4] [%],cell viability [5] [%],cell viability [6] [%],cell viability [7] [%],cell viability [8] [%],cell viability [9] [%],cell viability [10] [%],cell viability [11] [%],cell viability [12] [%],cell viability [13] [%],cell viability [14] [%],cell viability [15] [%],cell viability [16] [%],cell viability [17] [%],cell viability [18] [%],cell viability [19] [%],cell viability [20] [%],cell viability [21] [%],cell viability [22] [%],cell viability [23] [%],cell viability [24] [%],cell viability [25] [%],cell viability [26] [%],cell viability [27] [%],cell viability [28] [%],cell viability [29] [%],cell viability [30] [%],cell viability [31] [%],cell viability [32] [%],cell viability [33] [%]
Cc1csc(NC(=O)c2sc3nc4c(c(C(F)(F)F)c3c2N)CCC4)n1,91.6,102,97.9,101,96.7,96.4,99.4,91.4,94,79.6,77.6,81.7,94.4,92.3,87.4,90.6,86,91.7,88.1,87.2,78.3,85.5,83.5,91.2,93,93.1,91.3,89.4,91,97.9,96.3,95.3,89.7
CNC[C@H](O)c1cccc(O)c1,92.9,92.1,98.8,36.8,111,103,109,110,99,113,122,78.1,86.8,94.7,26.9,93,89.4,90.6,92.8,88.6,102,99,78.3,88.4,98.3,32.9,98,102,101,87.7,82.3,91.1,103
O=C(c1ccc(F)c(F)c1Nc1ccc(I)cc1F)N1CC(O)([C@@H]2CCCCN2)C1,96.3,91.9,97.4,108,90.9,70.1,56.4,41.8,15.1,13.3,14.3,91.4,99.9,98.2,93.4,92.5,74.1,61.8,29.1,8.07,7.33,5.28,89.4,99,93.9,102,100,69.7,58.6,44.1,10.1,10.2,11.6
COc1ccc2c(c1)c(CC(=O)OCC(=O)O)c(C)n2C(=O)c1ccc(Cl)cc1,123,131,122,136,117,131,128,114,123,120,123,–,–,–,–,–,–,–,–,–,–,–,112,137,110,142,117,133,120,135,115,123,106
CN1CCC[C@@H]1CCO[C@](C)(c1ccccc1)c1ccc(Cl)cc1,96,112,95.7,102,112,109,119,107,110,112,95.2,100,105,101,110,107,105,100,109,114,115,103,93.3,112,105,97.2,117,108,104,102,104,112,87.8
COc1ccc(Nc2nccc(NCCO)n2)cc1,75.3,86.5,84.9,97.5,86,96.7,88.8,99.5,74.5,84.9,22.7,72.7,86.4,73.6,83.5,79.6,79.8,79.6,79,15.8,81.3,91.8,61.9,63.7,69.4,73.9,73.8,76.9,68.9,75.5,23.6,76.9,76.2
COC1=CC=CC(=C1N)\C2=C\C(=O)C3=C(O2)C=CC=C3,–,–,–,–,–,–,–,–,–,–,–,120,121,119,117,143,125,143,124,126,121,116,–,–,–,–,–,–,–,–,–,–,–
CN(C)CC[C@H](c1ccc(Cl)cc1)c1ccccn1,70.4,74,78.8,77.9,75.7,77.9,88.3,79.7,81,78.8,87.1,75,76.5,77.1,80.3,81.4,81.2,80.7,79.6,83.2,79.9,83.7,74,88.2,83.1,85.9,81.5,86.5,95.7,89.5,89.5,91,82.8
Cc1cc(Nc2nc(N[C@@H](C)c3ccc(F)cc3)c(C#N)cc2F)n[nH]1,108,101,109,113,93.9,99.9,114,92.3,36.4,68.8,58.6,88.9,94.7,91.2,99.2,90.9,81.2,89.5,83,20.7,36.1,45.5,79.8,104,104,103,96.8,97.5,98.7,91.1,28.3,36.1,55
